# According to US12258355B2, “Probes for imaging huntingtin protein” (CHDI Foundation, Inc., priority 2014, dated 2025):
# Biological target: T1, Q46 protein aggregates (Homo sapiens, UniProt P42858)
# T1 construct: fused on or other part: GST at the N-terminus, cut off with thrombin before the test to start aggregation; The wells held aggregated Q46 without GST
# Assay: Q46 radioligand binding assay (RBA)
# Conditions: 10 nM ligand [3H3]MK-3328
# Experimental: Q46 Radioligand Binding Assay
# For radioligand binding assays (RBA) GST-Q46 protein was generated based on a previous publication (Scherzinger et al. Cell, Vol. 90, 549-558, Aug. 8, 1997). For experiments 33 μM GST-Q46 was incubated with 150 μg/mL thrombin in assay buffer (150 mM NaCl, 50 mM Tris pH 8.0) and 2 mM CaCl2 for 16 hours at 37° C. Aggregated Q46 was pelleted by centrifugation for 5 minutes at 13,000 rpm in a bench top centrifuge and re-dissolved in the same volume of assay buffer. Test compounds were prepared by titration in DMSO at 11 concentrations from 33 μM to 1 nM. For the RBA, Q46 protein aggregates and test compounds were pre-incubated in assay buffer for 20 minutes at room temperature, in 140 μL/well in a 96-well plate (pp, round bottom). Then, ligand was added in 10 μL/well and incubated for 60 minutes at 37° C. Final assay concentrations were 1 μM to 30 pM test compound, 5 μM Q46 protein (equivalent monomer concentration) and 10 nM ligand [^3H3]MK-3328 (Harrision et al., ACS Med. Chem. Lett., 2 (2011), pp 498-502). Samples were transferred onto GF/B filter plates and washed 2× with 200 μL PBS using a Filtermate Harvester. After drying filter plates for 1 hour at 37° C., the back of the plates were sealed with foil and 30 μL/well scintillation fluid (Packard MicroScint 40) added, incubated for 15 minutes in the dark and counted in a TopCount reader. For analysis, replicate data from independent assay plates were normalized towards 0% and 100% inhibition using control wells of vehicle (0% inhibition) and 3 μM unlabelled MK-3328 (100% inhibition). IC50 values were determined with a sigmoidal inhibition model with four variables (top, bottom, slope, IC50) in a global fit using the normalized replicate data.
# T1 sequence (P42858 with tags, fused parts or gaps with the stated changes, form open): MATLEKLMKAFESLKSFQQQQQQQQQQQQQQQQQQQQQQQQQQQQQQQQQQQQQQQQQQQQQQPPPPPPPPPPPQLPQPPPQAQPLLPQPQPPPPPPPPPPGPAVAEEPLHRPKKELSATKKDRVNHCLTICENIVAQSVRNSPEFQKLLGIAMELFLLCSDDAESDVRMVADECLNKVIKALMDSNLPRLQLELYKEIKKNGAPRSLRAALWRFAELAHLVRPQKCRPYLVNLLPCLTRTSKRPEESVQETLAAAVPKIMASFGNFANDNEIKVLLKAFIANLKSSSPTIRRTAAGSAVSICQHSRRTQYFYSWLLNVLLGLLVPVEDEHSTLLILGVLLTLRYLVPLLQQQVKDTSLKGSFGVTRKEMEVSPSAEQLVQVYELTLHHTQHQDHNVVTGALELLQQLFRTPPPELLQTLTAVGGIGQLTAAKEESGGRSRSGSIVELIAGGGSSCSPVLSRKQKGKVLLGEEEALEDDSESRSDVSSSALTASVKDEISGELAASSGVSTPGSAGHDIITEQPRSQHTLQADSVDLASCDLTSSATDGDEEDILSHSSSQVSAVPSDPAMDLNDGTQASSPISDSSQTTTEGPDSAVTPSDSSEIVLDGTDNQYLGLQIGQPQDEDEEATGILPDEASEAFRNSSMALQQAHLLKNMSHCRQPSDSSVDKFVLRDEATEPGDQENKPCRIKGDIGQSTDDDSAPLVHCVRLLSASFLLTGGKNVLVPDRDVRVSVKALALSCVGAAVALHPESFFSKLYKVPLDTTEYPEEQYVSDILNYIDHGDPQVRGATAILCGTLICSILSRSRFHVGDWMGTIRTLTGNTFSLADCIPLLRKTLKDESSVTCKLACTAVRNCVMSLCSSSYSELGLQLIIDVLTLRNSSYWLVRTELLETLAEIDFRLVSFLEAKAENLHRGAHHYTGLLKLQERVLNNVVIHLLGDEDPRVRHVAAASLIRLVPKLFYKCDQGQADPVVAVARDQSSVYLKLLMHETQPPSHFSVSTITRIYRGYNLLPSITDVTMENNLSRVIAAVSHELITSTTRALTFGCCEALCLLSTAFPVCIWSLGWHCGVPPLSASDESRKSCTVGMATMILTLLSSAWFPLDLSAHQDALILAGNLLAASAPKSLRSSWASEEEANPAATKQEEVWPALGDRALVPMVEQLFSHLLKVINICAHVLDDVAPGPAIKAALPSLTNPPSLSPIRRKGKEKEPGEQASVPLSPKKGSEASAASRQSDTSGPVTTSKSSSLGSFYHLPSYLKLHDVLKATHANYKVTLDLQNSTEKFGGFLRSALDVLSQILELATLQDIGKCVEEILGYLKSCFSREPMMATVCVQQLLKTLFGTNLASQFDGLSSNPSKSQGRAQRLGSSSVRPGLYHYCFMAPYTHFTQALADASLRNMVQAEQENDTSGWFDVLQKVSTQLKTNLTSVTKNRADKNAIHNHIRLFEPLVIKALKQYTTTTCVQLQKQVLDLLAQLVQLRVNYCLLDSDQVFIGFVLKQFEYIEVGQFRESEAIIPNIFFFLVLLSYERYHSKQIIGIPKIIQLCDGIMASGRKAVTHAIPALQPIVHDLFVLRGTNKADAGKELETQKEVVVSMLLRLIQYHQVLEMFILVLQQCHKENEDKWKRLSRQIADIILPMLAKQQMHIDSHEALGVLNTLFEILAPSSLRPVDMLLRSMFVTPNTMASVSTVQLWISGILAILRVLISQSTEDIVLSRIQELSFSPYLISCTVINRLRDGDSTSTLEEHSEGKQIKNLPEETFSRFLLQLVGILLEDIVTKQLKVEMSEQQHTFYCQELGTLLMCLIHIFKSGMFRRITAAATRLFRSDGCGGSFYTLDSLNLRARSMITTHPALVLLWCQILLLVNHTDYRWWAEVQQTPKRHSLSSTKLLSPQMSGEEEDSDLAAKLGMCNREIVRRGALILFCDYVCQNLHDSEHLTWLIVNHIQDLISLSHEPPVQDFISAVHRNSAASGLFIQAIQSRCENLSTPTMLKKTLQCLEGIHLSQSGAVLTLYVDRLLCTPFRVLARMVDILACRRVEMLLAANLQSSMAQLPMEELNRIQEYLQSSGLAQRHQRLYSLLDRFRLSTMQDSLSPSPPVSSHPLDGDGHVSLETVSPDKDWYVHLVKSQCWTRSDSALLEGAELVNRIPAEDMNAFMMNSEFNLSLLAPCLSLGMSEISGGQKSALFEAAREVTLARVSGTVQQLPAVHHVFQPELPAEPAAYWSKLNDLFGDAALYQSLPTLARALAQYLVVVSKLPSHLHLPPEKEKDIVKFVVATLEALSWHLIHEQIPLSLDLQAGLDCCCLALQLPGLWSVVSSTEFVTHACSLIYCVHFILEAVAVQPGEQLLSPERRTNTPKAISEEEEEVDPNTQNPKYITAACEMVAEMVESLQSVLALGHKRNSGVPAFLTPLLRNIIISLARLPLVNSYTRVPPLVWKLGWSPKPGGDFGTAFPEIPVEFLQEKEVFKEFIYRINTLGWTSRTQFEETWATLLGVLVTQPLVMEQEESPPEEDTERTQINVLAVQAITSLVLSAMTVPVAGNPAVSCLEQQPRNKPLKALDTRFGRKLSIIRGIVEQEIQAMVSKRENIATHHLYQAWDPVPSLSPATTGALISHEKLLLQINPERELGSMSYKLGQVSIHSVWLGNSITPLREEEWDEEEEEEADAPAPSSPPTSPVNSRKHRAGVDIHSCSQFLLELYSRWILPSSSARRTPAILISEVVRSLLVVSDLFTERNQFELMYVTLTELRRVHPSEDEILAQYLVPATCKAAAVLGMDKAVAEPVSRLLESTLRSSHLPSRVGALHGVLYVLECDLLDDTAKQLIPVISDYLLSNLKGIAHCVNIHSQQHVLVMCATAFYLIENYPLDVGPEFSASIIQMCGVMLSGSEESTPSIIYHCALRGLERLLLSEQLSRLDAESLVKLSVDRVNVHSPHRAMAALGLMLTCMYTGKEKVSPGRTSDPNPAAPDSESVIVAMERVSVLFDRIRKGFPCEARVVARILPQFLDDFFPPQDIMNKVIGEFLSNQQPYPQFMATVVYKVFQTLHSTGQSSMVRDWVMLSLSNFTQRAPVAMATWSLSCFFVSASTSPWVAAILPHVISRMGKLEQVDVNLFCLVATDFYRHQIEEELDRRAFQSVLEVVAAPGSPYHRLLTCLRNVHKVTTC
row,SMILES,IC50 [nM]
1,"COc1ccc(C(=O)Nc2ccc3oc(-c4ccc(OC)cc4)nc3c2)cc1 [4-methoxy-N-[2-(4-methoxyphenyl)-1,3-benzoxazol-5-yl]benzamide]",< 100
2,"BrC1=C(c2cc3cc(OCc4cccnc4)ccc3o2)N2CCN=C2S1 [3-{[(2-{2-bromo-5H,6H-imidazo[2,1-b][1,3]thiazol-3-yl}-1-benzofuran-5-yl)oxy]methyl}pyridine]",< 100
3,"COc1ccc(C(=O)Nc2ccc3oc(-c4cccc(C)c4)nc3c2)cc1 [4-methoxy-N-[2-(3-methylphenyl)-1,3-benzoxazol-5-yl]benzamide]",< 100
4,"COc1cc(C(=O)Nc2ccc3oc(-c4cccnc4)nc3c2)on1 [3-methoxy-N-[2-(pyridin-3-yl)-1,3-benzoxazol-5-yl]-1,2-oxazole-5-carboxamide]",< 100
5,"N#Cc1ccc(C(=O)Nc2ccc3oc(-c4cccnc4)nc3c2)cc1 [4-cyano-N-[2-(pyridin-3-yl)-1,3-benzoxazol-5-yl]benzamide]",< 100
6,"O=C(Nc1ccc2oc(-c3cccnc3)nc2c1)c1cccc(Oc2ccccc2)c1 [3-phenoxy-N-[2-(pyridin-3-yl)-1,3-benzoxazol-5-yl]benzamide]",< 100
7,"COc1ccc(/C=C\c2cnc3oc(-c4cccnc4)nc3c2)cc1 [3-{6-[(Z)-2-(4-methoxyphenyl)ethenyl]-[1,3]oxazolo[5,4-b]pyridin-2-yl}pyridine]",< 100
8,"COc1ccc(C(C)Oc2cnc3oc(-c4cccnc4)nc3c2)nc1 (stereo not shown) [3-{6-[1-(5-methoxypyridin-2-yl)ethoxy]-[1,3]oxazolo[5,4-b]pyridin-2-yl}pyridine]",100 to 500
9,"COc1ccnc(C(=O)Nc2ccc3oc(-c4ccc(=O)n(C)n4)nc3c2)c1 [4-methoxy-N-[2-(1-methyl-6-oxo-1,6-dihydropyridazin-3-yl)-1,3-benzoxazol-5-yl]pyridine-2-carboxamide]",< 100
10,"COc1ccc(COc2ccc3oc(-c4cccc(OCc5ccccc5)c4)nc3c2)nc1 [2-[3-(benzyloxy)phenyl]-5-[(5-methoxypyridin-2-yl)methoxy]-1,3-benzoxazole]",< 100
11,"Cn1cc(C(=O)Nc2ccc3oc(-c4cccnc4)nc3c2)cn1 [1-methyl-N-[2-(pyridin-3-yl)-1,3-benzoxazol-5-yl]-1H-pyrazole-4-carboxamide]",< 100
12,"O=C(Nc1ccc2oc(-c3cccnc3)nc2c1)c1ccc(COc2ccccc2)cc1 [4-(phenoxymethyl)-N-[2-(pyridin-3-yl)-1,3-benzoxazol-5-yl]benzamide]",< 100
13,"C1=C(c2cc3cc(OCc4cccnc4)ccc3o2)N2CCN=C2S1 [3-{[(2-{5H,6H-imidazo[2,1-b][1,3]thiazol-3-yl}-1-benzofuran-5-yl)oxy]methyl}pyridine]",< 100
14,Cn1cc(COc2ccc3oc(-c4cnccc4C#N)cc3c2)cn1 [3-{5-[(1-methyl-1H-pyrazol-4-yl)methoxy]-1-benzofuran-2-yl}pyridine-4-carbonitrile],< 100
15,N#Cc1cnccc1-c1cc2cc(OCc3cnn(CCO)c3)ccc2o1 [4-(5-{[1-(2-hydroxyethyl)-1H-pyrazol-4-yl]methoxy}-1-benzofuran-2-yl)pyridine-3-carbonitrile],< 100
16,"COc1ccc(C(=O)Nc2cnc3oc(-c4cccc(C)c4)nc3c2)cc1 [4-methoxy-N-[2-(3-methylphenyl)[1,3]oxazolo[5,4-b]pyridin-6-yl]benzamide]",< 100
17,"O=C(Nc1ccc2oc(-c3cccnc3)nc2c1)c1cc(O)ccn1 [4-hydroxy-N-[2-(pyridin-3-yl)-1,3-benzoxazol-5-yl]pyridine-2-carboxamide]",100 to 500
18,"Cc1cc(C(=O)Nc2ccc3oc(-c4cccnc4)nc3c2)ccn1 [2-methyl-N-[2-(pyridin-3-yl)-1,3-benzoxazol-5-yl]pyridine-4-carboxamide]",< 100
19,"COc1ccc(COc2ccc3oc(N4CC(F)C4)nc3c2)nc1 [2-(3-fluoroazetidin-1-yl)-5-[(5-methoxypyridin-2-yl)methoxy]-1,3-benzoxazole]",100 to 500

# Continued, values first:
row,IC50 [nM],SMILES
1,< 100,"COc1ccc(COc2ccc3oc(-c4ccncn4)nc3c2)nc1 [5-[(5-methoxypyridin-2-yl)methoxy]-2-(pyrimidin-4-yl)-1,3-benzoxazole]"
2,< 100,"CNc1ccc(COc2ccc3oc(-c4cccnc4)nc3c2)nc1 [N-methyl-6-({[2-(pyridin-3-yl)-1,3-benzoxazol-5-yl]oxy}methyl)pyridin-3-amine]"
3,< 100,"O=C(Nc1ccc2oc(-c3cccnc3)nc2c1)c1ccc2ccccc2n1 [N-[2-(pyridin-3-yl)-1,3-benzoxazol-5-yl]quinoline-2-carboxamide]"
4,< 100,"COc1ccc(COc2ccc3oc(-c4cccnn4)nc3c2)nc1 [5-[(5-methoxypyridin-2-yl)methoxy]-2-(pyridazin-3-yl)-1,3-benzoxazole]"
5,100 to 500,"CN(C)CCOc1ccc(COc2ccc3oc(-c4cccnc4)nc3c2)cc1 [dimethyl({2-[4-({[2-(pyridin-3-yl)-1,3-benzoxazol-5-yl]oxy}methyl)phenoxy]ethyl})amine]"
6,< 100,"O=C(Nc1ccc2oc(-c3cccnc3)nc2c1)c1ccc(-c2ncccn2)cc1 [N-[2-(pyridin-3-yl)-1,3-benzoxazol-5-yl]-4-(pyrimidin-2-yl)benzamide]"
7,< 100,"COc1ccc(C(=O)Nc2ccc3oc(-c4cccc(C)c4)nc3c2)cn1 [6-methoxy-N-[2-(3-methylphenyl)-1,3-benzoxazol-5-yl]pyridine-3-carboxamide]"
8,< 100,"O=C(Nc1ccc2oc(-c3ccccc3)nc2c1)c1ccccc1 [N-(2-phenyl-1,3-benzoxazol-5-yl)benzamide]"
9,< 100,"CNCc1cccc(-c2nc3cc(OCc4ccc(OC)cn4)ccc3o2)c1 [[(3-{5-[(5-methoxypyridin-2-yl)methoxy]-1,3-benzoxazol-2-yl}phenyl)methyl](methyl)amine]"
10,< 100,"COc1ccc(COc2ccc3oc(-c4cccnc4)nc3c2)nc1 [5-[(5-methoxypyridin-2-yl)methoxy]-2-(pyridin-3-yl)-1,3-benzoxazole]"
11,< 100,"COc1cnc(-c2ccc3oc(-c4cccnc4)nc3c2)nc1 [5-(5-methoxypyrimidin-2-yl)-2-(pyridin-3-yl)-1,3-benzoxazole]"
12,< 100,"CNC(=O)c1ccc(-c2nc3cc(OCc4ccc(O)cn4)ccc3o2)cn1 [5-{5-[(5-hydroxypyridin-2-yl)methoxy]-1,3-benzoxazol-2-yl}-N-methylpyridine-2-carboxamide]"
13,100 to 500,"COc1ccc(COc2ccc3oc(-c4cn(C)cn4)nc3c2)nc1 [5-[(5-methoxypyridin-2-yl)methoxy]-2-(1-methyl-1H-imidazol-4-yl)-1,3-benzoxazole]"
14,< 100,"O=C(Nc1ccc2oc(-c3cccnc3)nc2c1)c1ccc2c(c1)OCO2 [N-[2-(pyridin-3-yl)-1,3-benzoxazol-5-yl]-2H-1,3-benzodioxole-5-carboxamide]"
15,< 100,"COc1cncc(C(=O)Nc2ccc3oc(-c4cccnc4)nc3c2)c1 [5-methoxy-N-[2-(pyridin-3-yl)-1,3-benzoxazol-5-yl]pyridine-3-carboxamide]"
16,< 100,"COc1ccc2c(c1)CN(c1cnc3oc(-c4cccnc4)nc3c1)C2=O [5-methoxy-2-[2-(pyridin-3-yl)-[1,3]oxazolo[5,4-b]pyridin-6-yl]-2,3-dihydro-1H-isoindol-1-one]"
17,< 100,"COc1ccnc(C(=O)Nc2ccc3oc(-c4cccnc4)nc3c2)c1 [4-methoxy-N-[2-(pyridin-3-yl)-1,3-benzoxazol-5-yl]pyridine-2-carboxamide]"
18,< 100,"COc1cccc(C(=O)Nc2ccc3oc(-c4cccnc4)nc3c2)n1 [6-methoxy-N-[2-(pyridin-3-yl)-1,3-benzoxazol-5-yl]pyridine-2-carboxamide]"
19,< 100,"CNC(=O)c1ccc(-c2nc3cc(OCc4ccc(OC)cn4)ccc3o2)c[n+]1[O-] [5-{5-[(5-methoxypyridin-2-yl)methoxy]-1,3-benzoxazol-2-yl}-2-(methylcarbamoyl)pyridin-1-ium-1-olate]"
20,< 100,"COCCOc1cnc(-c2ccc3oc(-c4cccnc4)nc3c2)nc1 [5-[5-(2-methoxyethoxy)pyrimidin-2-yl]-2-(pyridin-3-yl)-1,3-benzoxazole]"
21,< 100,"COc1ccc(COc2ccc3oc(-c4cccc(Oc5ccccc5)c4)nc3c2)nc1 [5-[(5-methoxypyridin-2-yl)methoxy]-2-(3-phenoxyphenyl)-1,3-benzoxazole]"
22,< 100,"COc1ccc(COc2ccc3oc(-c4ccc(C#N)cc4)nc3c2)nc1 [4-{5-[(5-methoxypyridin-2-yl)methoxy]-1,3-benzoxazol-2-yl]benzonitrile]"
23,< 100,"O=C(Nc1ccc2oc(-c3cccnc3)nc2c1)c1ccc2occc2c1 [N-[2-(pyridin-3-yl)-1,3-benzoxazol-5-yl]-1-benzofuran-5-carboxamide]"
24,100 to 500,"Cn1cc(-c2nc3cc(OCc4ccc(N)cn4)cnc3o2)cn1 [6-({[2-(1-methyl-1H-pyrazol 4-yl)-[1,3]oxazolo[5,4-b]pyridin-6-yl]oxy}methyl)pyridin-3-amine]"
